Consider 31 compounds from patent US9586951B2 (FUJIFILM Corporation, priority 2013, dated 2017).

T1 sequence (Q13315 whole entry): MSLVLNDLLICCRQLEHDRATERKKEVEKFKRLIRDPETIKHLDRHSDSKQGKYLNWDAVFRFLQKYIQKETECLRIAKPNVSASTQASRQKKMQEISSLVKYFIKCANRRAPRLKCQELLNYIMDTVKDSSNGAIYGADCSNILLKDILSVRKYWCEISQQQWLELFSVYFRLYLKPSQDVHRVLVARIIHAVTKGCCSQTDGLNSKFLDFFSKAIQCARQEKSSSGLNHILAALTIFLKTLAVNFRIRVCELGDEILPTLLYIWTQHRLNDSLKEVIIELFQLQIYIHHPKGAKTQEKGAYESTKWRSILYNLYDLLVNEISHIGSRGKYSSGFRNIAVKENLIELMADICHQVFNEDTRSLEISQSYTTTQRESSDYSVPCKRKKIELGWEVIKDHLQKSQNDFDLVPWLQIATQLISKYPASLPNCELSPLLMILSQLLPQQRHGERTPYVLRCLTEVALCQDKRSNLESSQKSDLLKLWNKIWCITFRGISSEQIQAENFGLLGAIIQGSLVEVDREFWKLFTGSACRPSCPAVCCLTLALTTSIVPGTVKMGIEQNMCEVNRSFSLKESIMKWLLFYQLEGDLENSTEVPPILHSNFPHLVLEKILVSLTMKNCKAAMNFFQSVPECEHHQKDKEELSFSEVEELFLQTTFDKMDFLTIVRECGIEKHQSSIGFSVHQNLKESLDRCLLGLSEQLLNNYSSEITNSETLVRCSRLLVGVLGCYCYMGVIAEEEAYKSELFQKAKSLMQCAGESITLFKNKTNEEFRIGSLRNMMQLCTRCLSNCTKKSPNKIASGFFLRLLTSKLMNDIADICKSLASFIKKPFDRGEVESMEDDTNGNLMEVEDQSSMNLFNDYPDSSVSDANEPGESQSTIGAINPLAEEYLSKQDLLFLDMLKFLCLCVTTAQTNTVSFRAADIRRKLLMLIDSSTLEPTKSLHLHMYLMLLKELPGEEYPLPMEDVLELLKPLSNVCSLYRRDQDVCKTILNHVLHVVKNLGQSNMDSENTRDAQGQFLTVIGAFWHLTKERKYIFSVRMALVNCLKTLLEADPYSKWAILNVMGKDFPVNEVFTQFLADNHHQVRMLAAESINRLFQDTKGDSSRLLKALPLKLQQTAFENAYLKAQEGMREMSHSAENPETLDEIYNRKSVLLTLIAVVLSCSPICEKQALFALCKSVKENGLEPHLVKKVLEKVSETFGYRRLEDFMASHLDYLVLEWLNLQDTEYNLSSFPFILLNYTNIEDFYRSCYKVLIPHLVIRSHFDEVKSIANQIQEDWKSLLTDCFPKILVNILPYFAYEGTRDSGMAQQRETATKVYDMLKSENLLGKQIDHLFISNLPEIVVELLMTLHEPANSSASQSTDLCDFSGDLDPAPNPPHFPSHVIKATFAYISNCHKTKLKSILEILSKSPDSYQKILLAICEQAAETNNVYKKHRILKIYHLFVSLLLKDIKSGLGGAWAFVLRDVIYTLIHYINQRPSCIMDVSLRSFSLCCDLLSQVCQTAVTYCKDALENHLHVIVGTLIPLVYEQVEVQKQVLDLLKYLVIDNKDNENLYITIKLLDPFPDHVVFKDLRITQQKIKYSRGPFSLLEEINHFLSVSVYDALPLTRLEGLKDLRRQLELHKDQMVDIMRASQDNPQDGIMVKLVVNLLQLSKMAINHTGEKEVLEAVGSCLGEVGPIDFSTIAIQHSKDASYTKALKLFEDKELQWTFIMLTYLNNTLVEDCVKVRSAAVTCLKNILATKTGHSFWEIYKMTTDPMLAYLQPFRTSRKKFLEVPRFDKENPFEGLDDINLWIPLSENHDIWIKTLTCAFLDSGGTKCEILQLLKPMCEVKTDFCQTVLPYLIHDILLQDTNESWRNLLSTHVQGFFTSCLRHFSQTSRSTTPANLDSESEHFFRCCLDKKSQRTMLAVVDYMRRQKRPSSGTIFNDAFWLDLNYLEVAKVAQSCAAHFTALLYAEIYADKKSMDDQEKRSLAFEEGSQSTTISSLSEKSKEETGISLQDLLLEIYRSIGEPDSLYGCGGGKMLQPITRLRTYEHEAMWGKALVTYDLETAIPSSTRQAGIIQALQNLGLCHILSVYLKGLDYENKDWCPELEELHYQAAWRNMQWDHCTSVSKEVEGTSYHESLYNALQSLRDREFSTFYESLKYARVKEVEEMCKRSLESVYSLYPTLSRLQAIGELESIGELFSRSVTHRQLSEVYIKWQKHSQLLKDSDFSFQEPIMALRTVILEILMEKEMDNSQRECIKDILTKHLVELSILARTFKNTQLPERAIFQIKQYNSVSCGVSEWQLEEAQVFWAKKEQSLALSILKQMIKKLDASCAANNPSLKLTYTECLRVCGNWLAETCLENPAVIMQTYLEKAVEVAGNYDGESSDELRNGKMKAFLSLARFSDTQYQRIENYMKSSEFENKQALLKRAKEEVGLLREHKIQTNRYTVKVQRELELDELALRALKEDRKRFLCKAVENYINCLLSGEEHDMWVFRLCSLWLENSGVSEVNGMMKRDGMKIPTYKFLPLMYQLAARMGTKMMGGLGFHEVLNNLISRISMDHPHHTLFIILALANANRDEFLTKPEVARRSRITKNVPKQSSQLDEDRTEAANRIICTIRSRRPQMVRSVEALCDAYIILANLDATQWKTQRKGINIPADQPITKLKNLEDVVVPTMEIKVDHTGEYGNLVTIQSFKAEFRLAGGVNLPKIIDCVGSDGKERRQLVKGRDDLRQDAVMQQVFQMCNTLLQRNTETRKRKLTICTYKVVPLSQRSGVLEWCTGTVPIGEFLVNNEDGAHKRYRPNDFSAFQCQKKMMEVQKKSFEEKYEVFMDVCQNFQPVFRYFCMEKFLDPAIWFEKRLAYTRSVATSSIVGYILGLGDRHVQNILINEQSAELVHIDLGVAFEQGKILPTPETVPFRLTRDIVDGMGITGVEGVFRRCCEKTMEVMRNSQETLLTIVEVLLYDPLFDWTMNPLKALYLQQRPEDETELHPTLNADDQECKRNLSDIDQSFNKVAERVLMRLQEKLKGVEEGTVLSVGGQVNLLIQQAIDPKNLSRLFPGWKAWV

This test has as its target T1, ATM (Homo sapiens, UniProt Q13315).
T1 construct: detecting phosphorylation of Chk2 in a human non-small cell lung cancer cell line NCI-H460 (ATCC company); host or cells: NCI-H460 human non-small cell lung cancer cells
Nature of the test: ATM inhibition test (phosphorylation of Chk2 generated by ionizing radiation, AlphaScreen SureFire). Particulars: phosphorylated Chk2 in NCI-H460 cells, ionizing radiation 8Gy, 1 hour after test compound treatment; read-out: ATM inhibitory activity. In kind it is cell-based. In outline:
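NCI-H460 cells, compound 1 h pre-treatment, 8Gy IR, further 1 h at 37° C in 5% CO2. Read-out: phospho-Chk2 via AlphaScreen SureFire. % inhibition relative to IR-induced signal window (irradiated vs non-irradiated drug-free wells).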
In general terms: Bead proximity is the source of the signal in Alpha formats.
Regarding `O=C(N[C@H]1CC[C@H](Nc2ccc3c(c2)Cc2cccc(-c4cc(N5CCOCC5)cc(=O)[nH]4)c2O3)CC1)OCc1ccccc1` [Example 2-2-54, Benzyl ((trans)-4-((5-(4-morpholino-6-oxo-1,6-dihydropyridin-2-yl)-9H-xanthen-2-yl)amino)cyclohexyl)carbamate], the IC50 lay in the range of 500 to 2000 nM.

Take `COc1ncccc1CNc1ccc2c(c1)Sc1cccc(-c3cc(N4CCOCC4)cc(=O)[nH]3)c1O2` [Example 4-8-9, 6-(8-(((2-Methoxypyridin-3-yl)methyl)amino)phenoxathiin-4-yl)-4-morpholino pyridin-2 (1H)-one]: the IC50 fell in the range of 100 to 500 nM. Turning to `Cc1cccc(C(CNC(=O)OC(C)(C)C)Nc2ccc3c(c2)Cc2cccc(-c4cc(N5CCOCC5)cc(=O)[nH]4)c2O3)n1` (stereo not shown) [Example 2-14-46], the IC50 lay in the range of 100 to 500 nM. The result for `Cc1cnc(C(CCN(C)CCO)Nc2ccc3c(c2)Sc2cccc(-c4cc(N5CCOCC5)cc(=O)[nH]4)c2S3)cn1` (single isomer, unassigned) [Example 10-4-2, 6-(7-((3-((2-Hydroxyethyl)(methyl)amino)-1-(5-methylpyrazin-2-yl)propyl)amino)thianthren-1-yl)-4-morpholinopyridin-2(1H)-one] reads 100 to 500 nM.

`O=c1cc(N2CCOCC2)cc(-c2cccc3c2Cc2ccc(NCc4ccc(Cl)nc4)cc2O3)[nH]1` [Example 6, 6-(6-(((6-chloropyridin-3-yl)methyl)amino)-9H-xanthen-1-yl)-4-morpholinopyridin-2(1H)-one]: the IC50 is 500 to 2000 nM. With `CC(=O)Nc1cccc(CNc2ccc3c(c2)Cc2cccc(-c4cc(N5CCOCC5)cc(=O)[nH]4)c2O3)n1` [Example 2-2-73, N-(6-(((5-(4-Morpholino-6-oxo-1,6-dihydropyridin-2-yl)-9H-xanthen-2-yl)amino)methyl)pyridin-2-yl) acetamide], the IC50 was 500 to 2000 nM. The result for `Cc1ccnc(C(CF)Nc2ccc3c(c2)Sc2cccc(-c4cc(N5CCOCC5)cc(=O)[nH]4)c2S3)c1` (stereo not shown) [Example 1-12-133, 6(7-((2-Fluoro-1-(4-methylpyridin-2-yl)ethyl)amino)thianthren-1-yl)-4-morpholino pyridin-2(1H)-one] reads 100 to 500 nM. In the case of `O=c1cc(N2CCOCC2)cc(-c2cccc3c2Sc2ccc(NC(CN4CCOCC4)CN4CCOCC4)cc2S3)[nH]1` [Example 1-51-12, 6-(7-((1,3-Dimorpholinopropan-2-yl)amino)thianthren-1-yl)-4-morpholino pyridin-2 (1H)-one] it was less than 100 nM; in that of `CN(C)c1cnc(CN(Cc2cnc(N(C)C)cn2)c2ccc3c(c2)Cc2cccc(-c4cc(N5CCOCC5)cc(=O)[nH]4)c2O3)cn1` [Example 2-2-76, 6-(7-(bis((5-(dimethylamino)pyrazin-2-yl)methyl)amino)-9H-xanthen-4-yl)-4-morpholinopyridin-2(1H)-one], less than 100 nM. The result for `CC(Nc1ccc2c(c1)Cc1cccc(-c3cc(N4CCOCC4)cc(=O)[nH]3)c1O2)c1cncc(F)c1` (stereo not shown) [Example 2-14-29, 6-(7-((1-(5-Fluoropyridin-3-yl)ethyl)amino)-9H-xanthan-4-yl)-4-morpholino pyridin-2(1H)-one] reads 100 to 500 nM; that for `Cc1cccc(CNc2ccc3c(c2)Cc2cccc(-c4cc(N5CCOCC5)cc(=O)[nH]4)c2O3)n1` [Example 2-2-24, 6-(7-(((6-Methylpyridin-2-yl)methyl)amino)-9H-xanthen-4-yl)-4-morpholino pyridin-2(1H)-one], 100 to 500 nM; that for `Cc1ccnc(CNc2ccc3c(c2)Cc2ccnc(-c4cc(N5CCOCC5)cc(=O)[nH]4)c2O3)c1` [Example 2-41-7, 6-(7-(((4-Methylpyridin-2-yl)methyl)amino)-5H-chromeno [2,3-c]pyridin-1-yl)-4-morpholino pyridin-2(1H)-one], 100 to 500 nM. For the compound `COc1cncc(CNc2ccc3c(c2)Cc2cccc(-c4cc(N5CCOCC5)cc(=O)[nH]4)c2S3)c1` [Example 3-8-9, 6-(7-(((5-Methoxypyridin-3-yl)methyl)amino)-9H-thioxanthen-4-yl)-4-morpholino pyridin-2 (1H)-one], the IC50 was 100 to 500 nM. In the case of `O=c1cc(N2CCOCC2)cc(-c2cccc3c2Oc2ccc(NCc4ccncc4)cc2CC3)[nH]1` [Example 2-51-3, 4-Morpholino-6-(8-((pyridin-4-ylmethyl)amino)-10,11-dihydrodibenz[b,f]oxepin-4-yl)pyridin-2(1H)-one] it was 500 to 2000 nM. In the case of `O=c1cc(N2CCOCC2)cc(-c2cccc3c2Sc2ccc(NC4CCCC4N4CCOCC4)cc2S3)[nH]1` (single isomer, unassigned) [Example 1-16-1-3, 4-morpholino-6-(7-((2-morpholinocyclopentyl)amino)thianthren-1-yl)pyridin-2(1H)-one] it was 100 to 500 nM; in that of `CC(Nc1ccc2c(c1)Sc1cccc(-c3cc(N4CCOCC4)cc(=O)[nH]3)c1S2)c1cc(C#N)ncn1` (stereo not shown) [Example 1-12-84, 6-(1-((6-(4-Morpholino-6-oxo-1,6-dihydropyridin-2-yl)thianthren-2-yl)amino)ethyl)pyrimidine-4-carbonitrile], 100 to 500 nM. With `O=C(CNc1ccc2c(c1)Sc1cccc(-c3cc(N4CCOCC4)cc(=O)[nH]3)c1S2)N1CCCCC1` [Example 1-18-2], the IC50 lay within 100 to 500 nM. For `O=c1cc(N2CCOCC2)cc(-c2cccc3c2Sc2ccc(NC4CCN(Cc5ccncc5)CC4)cc2S3)[nH]1` [Example 1-24-20, 4-Morpholino-6-(7-((1-(pyridin-4-ylmethyl)piperidin-4-yl)amino)thianthren-1-yl)pyridin-2 (1H)-one], the IC50 was in the range of 100 to 500 nM.

On to `Cc1ccc(C(Nc2ccc3c(c2)Sc2cccc(-c4cc(N5CCOCC5)cc(=O)[nH]4)c2S3)C2CNCCO2)nc1` (single isomer, unassigned) [Example 1-55-2, 6-(7-(((5-methylpyridin-2-yl)(morpholin-2-yl)methyl)amino)thianthren-1-yl)-4-morpholinopyridin-2(1H)-one], for which the IC50 was less than 100 nM.

On to `N#Cc1cccc(CNc2ccc3c(c2)Cc2cccc(-c4cc(N5CCOCC5)cc(=O)[nH]4)c2O3)c1` [Example 2-3-15, 3-(((5-(4-Morpholino-6-oxo-1,6-dihydropyridin-2-yl)-9H-xanthen-2-yl)amino)methyl) benzonitrile], for which the IC50 lay in the range of 100 to 500 nM.

Turning to `CCN(C)CCC(Nc1ccc2c(c1)Sc1cccc(-c3cc(N4CCOCC4)cc(=O)[nH]3)c1S2)c1ccc(C)cn1` (single isomer, unassigned) [Example 1-51-9, 6-(7-((3-(Ethyl(methyl)amino)-1-(5-methylpyridin-2-yl)propyl)amino)thianthren-1-yl)-4-morpholino pyridin-2 (1H)-one], the IC50 was less than 100 nM. The result for `O=c1cc(N2CCOCC2)cc(-c2cccc3c2Oc2ccc(NC4CCN(CCc5ccc(F)cc5)CC4)cc2C3)[nH]1` [Example 2-30-14, 6-(7-((1-(4-Fluorophenethyl)piperidin-4-yl)amino)-9H-xanthen-4-yl)-4-morpholino pyridin-2(1H)-one] reads 100 to 500 nM; that for `O=c1cc(N2CCOCC2)cc(-c2cccc3c2Oc2ccc(NCc4cncc(Cl)c4)cc2S3)[nH]1` [Example 4-8-6, 6-(8-(((5-Chloropyridin-3-yl)methyl)amino)phenoxathiin-4-yl)-4-morpholino pyridin-2(1H)-one], 100 to 500 nM; that for `O=C(OCc1ccccc1)N1C[C@@H](N2CCOCC2)[C@H](Nc2ccc3c(c2)Sc2cccc(-c4cc(N5CCOCC5)cc(=O)[nH]4)c2S3)C1` (racemic) [Example 11-1, Benzyl 3-morpholino-4-((6-(4-morpholino-6-oxo-1,6-dihydropyridin-2-yl)thianthren-2-yl)amino)pyrrolidine-1-carboxylate], 100 to 500 nM. `O=c1cc(N2CCOCC2)cc(-c2cccc3c2Oc2ccc(NCc4cnc5occc5c4)cc2C3)[nH]1` [Example 2-2-44, 6-(7-((Furo[2,3-b]pyridin-5-ylmethyl)amino)-9H-xanthen-4-yl)-4-morpholino pyridin-2(1H)-one]: the IC50 is less than 100 nM. Take `N#CCN1CCC(Nc2ccc3c(c2)Cc2cccc(-c4cc(N5CCOCC5)cc(=O)[nH]4)c2O3)CC1` [Example 2-30-1, 2-(4-((5-(4-morpholino-6-oxo-1,6-dihydropyridin-2-yl)-9H-xanthen-2-yl)amino)piperidin-1-yl)acetonitrile]: the IC50 lay within 100 to 500 nM. The result for `CC(C)(C)OC(=O)N1CCCC(Nc2ccc3c(c2)Cc2cccc(-c4cc(N5CCOCC5)cc(=O)[nH]4)c2O3)CC1` (stereo not shown) [Example 2-3-11, tert-Butyl 4-((5-(4-morpholino-6-oxo-1,6-dihydropyridin-2-yl)-9H-xanthen-2-yl)amino) azepane-1-carboxylate] reads 100 to 500 nM; that for `Cc1ccnc(C(CN2CCOCC2)Nc2ccc3c(c2)Sc2cccc(-c4cc(N5CCOCC5)cc(=O)[nH]4)c2S3)n1` (stereo not shown) [Example 1-13-18, 6-(7-((1-(4-Methylpyrimidin-2-yl)-2-morpholinoethyl)amino)thianthren-1-yl)-4-morpholinopyridin-2(1H)-one], 500 to 2000 nM; that for `CC(=O)N1CCC(Nc2ccc3c(c2)Sc2cccc(-c4cc(N5CCOCC5)cc(=O)[nH]4)c2S3)CC1` [Example 1-12-115, 6-(7-((1-Acetylpiperidin-4-yl)amino)thianthren-1-yl)-4-morpholino pyridin-2 (1H)-one], 100 to 500 nM.

Take `Cc1ccnc(C(CO)Nc2ccc3c(c2)Sc2cccc(-c4cc(N5CCOCC5)cc(=O)[nH]4)c2S3)c1` (single isomer, unassigned) [Example 1-12-138-1, 6-(7-((2-hydroxy-1-(4-methylpyridin-2-yl)ethyl)amino)thianthren-1-yl)-4-morpholinopyridin-2(1H)-one]: the IC50 lay in the range of 100 to 500 nM. In the case of `CC(CN1CCOCC1)Nc1ccc2c(c1)Sc1cccc(-c3cc(N4CCOCC4)cc(=O)[nH]3)c1S2` (single isomer, unassigned) [Example 1-13-2-3, 4-morpholino-6-(7-((1-morpholinopropan-2-yl)amino)thianthren-1-yl)pyridin-2(1H)-one] it was 100 to 500 nM.
